Results: US4923697A, “Antioxidant compositions and methods” (Bar-Ilan University, priority 1986, dated 1990)

Tested on: skin of adult mice
Assay: TBA test of peroxide level in skin of adult shaved mice
Format: in vivo, mouse
Settings: 0.1% in Oil of Olay
Excerpt: Samples of creams and appropriate controls were applied to mice or rat skin for a fixed period. The application was done once a day. Experiments were terminated by killing the animal, peeling the skin and freezing it in liquid nitrogen. Samples of the frozen skin were homogenized in 0.2.M phosphate buffer, pH 6.5. After centrifugation, the supernatant was collected and analyzed for the peroxide value using the TBA (thiobarbituric acid) test as described by Sinnhuber et. al, Food Res. 23: 620 (1958).
In these experiments adult mice (2 months old) were treated as described in Example 2. The grown mice were shaved before applying the creams to the skin. In this experiment the antioxidant was dissolved in Oil of Olay. Mice were sacrificed after 21 days.

Structure (SMILES) | reduction of the level of peroxides in the skin
COc1ccc(O)c(C(C)(C)C)c1 [BHA, butylated hydroxy anisole] | no reduction of the level of peroxides was observed
Cc1cc(C(C)(C)C)c(O)c(C(C)(C)C)c1 [BHT, butylated hydroxy toluene] | no reduction of the level of peroxides was observed
Cc1c(C)c2c(c(C)c1O)CCC(C)(CCCC(C)CCCC(C)CCCC(C)C)O2 (stereo not drawn) [alpha tocopherol, alpha-tocopherol] | no reduction of the level of peroxides was observed
